Results taken from patent US12281121B2, “N-containing heteroaryl derivative and pharmaceutical composition comprising same as active ingredient for prevention or treatment of cancer” (VORONOI Inc., priority 2019, dated 2025).

What was measured:
Assay in all cases: ScanMAX Kinase analysis panel (DiscoverX)
Assay type in all cases: binding
FLT3(D835V) = target: T1, FLT3(D835V) (Homo sapiens, UniProt P36888, D835V); settings: read-out: adjusted percentage (% control)
T1 construct: purchased DiscoverX ScanMAX Kinase analysis panel
Method: (§1) The following experiment was performed in order to evaluate the inhibitory activity of the compound according to the present invention against more enzymes. Specifically, for Examples 1 and 3 selected among the Example compounds of the present invention, the enzyme (kinase) selectivity was set to be measured by commissioning DiscoverX, and an experiment was conducted using a ScanMAX™ Kinase analysis panel. In this case, the concentration of the drug treated with the enzyme was set to 1 μM in DMSO, the adjusted percentage (% control) was determined in the same manner as in the following Equation 1, and the results are shown in the following Table 3. (Example compound−Positive control)/(Negative control−Positive control)×100 [Equation 1]
(§2) In addition, the enzyme selectivity of the present invention was determined to be active against the corresponding enzyme when the adjusted percentage was <35% (that is, less than 35%).

AURKA = target: T2, AURKA (Homo sapiens, UniProt O14965); settings: read-out: adjusted percentage (% control)
T2 construct: purchased DiscoverX
Method: as §1, §2

DDR2 = target: T3, DDR2 (Homo sapiens, UniProt Q16832); settings: read-out: adjusted percentage (% control)
T3 construct: purchased DiscoverX
Method: as §1, §2

AXL = target: T4, AXL (Homo sapiens, UniProt P30530); settings: read-out: adjusted percentage (% control)
T4 construct: purchased DiscoverX
Method: as §1, §2

FLT3(ITD, D835V) = settings: 1 μM
Method: as §1, §2

CSNK2A2 = target: T5, CSNK2A2 (Homo sapiens, UniProt P19784); settings: read-out: adjusted percentage (% control)
T5 construct: purchased DiscoverX
Method: as §1, §2

[1] = target: T6, JAK1(JH1domain-catalytic) (Homo sapiens, UniProt P23458); settings: read-out: adjusted percentage (% control)
T6 construct: JAK1(JH1domain-catalytic); purchased DiscoverX ScanMAX Kinase analysis panel
Method: as §1, §2

FGFR1 = target: T7, FGFR1 (Homo sapiens, UniProt P11362); settings: read-out: adjusted percentage (% control)
T7 construct: purchased DiscoverX ScanMAX Kinase analysis panel
Method: as §1, §2

FLT3(ITD) = settings: 1 μM
Method: as §1, §2

[2] = target: T8, ABL1(H396P)-nonphosphorylated (Homo sapiens, UniProt P00519, H396P); settings: read-out: adjusted percentage (% control)
T8 construct: purchased DiscoverX
Method: as §1, §2

SYK = target: T9, SYK (Homo sapiens, UniProt P43405); settings: read-out: adjusted percentage (% control)
T9 construct: purchased DiscoverX ScanMAX Kinase analysis panel
Method: as §1, §2

MEK2 = target: T10, MEK2 (Homo sapiens, UniProt P36507); settings: read-out: adjusted percentage (% control)
T10 construct: purchased DiscoverX ScanMAX Kinase analysis panel
Method: as §1, §2

AURKC = target: T11, AURKC (Homo sapiens, UniProt Q9UQB9); settings: read-out: adjusted percentage (% control)
T11 construct: purchased DiscoverX
Method: as §1, §2

FLT3(K663Q) = target: T12, FLT3(K663Q) (Homo sapiens, UniProt P36888, K663Q); settings: read-out: adjusted percentage (% control)
T12 construct: purchased DiscoverX ScanMAX Kinase analysis panel
Method: as §1, §2

[3] = target: T13, EGFR(L747-E749del, A750P) (Homo sapiens, UniProt P00533, A750P/DEL747-749); settings: read-out: adjusted percentage (% control)
T13 construct: purchased DiscoverX
Method: as §1, §2

GCN2(Kin.Dom.2, S808G) = target: T14, GCN2(Kin.Dom.2, S808G) (Homo sapiens, UniProt Q9P2K8, S808G); settings: read-out: adjusted percentage (% control)
T14 construct: GCN2(Kin.Dom.2,S808G); purchased DiscoverX ScanMAX Kinase analysis panel
Method: as §1, §2

KIT(D816V) = target: T15, KIT(D816V) (Homo sapiens, UniProt P10721, D816V); settings: read-out: adjusted percentage (% control)
T15 construct: purchased DiscoverX ScanMAX Kinase analysis panel
Method: as §1, §2

DLK = target: T16, DLK (Homo sapiens, UniProt Q12852); settings: read-out: adjusted percentage (% control)
T16 construct: purchased DiscoverX
Method: as §1, §2

LCK = target: T17, LCK (Homo sapiens, UniProt P06239); settings: read-out: adjusted percentage (% control)
T17 construct: purchased DiscoverX ScanMAX Kinase analysis panel
Method: as §1, §2

PDGFRB = target: T18, PDGFRB (Homo sapiens, UniProt P09619); settings: read-out: adjusted percentage (% control)
T18 construct: purchased DiscoverX ScanMAX Kinase analysis panel
Method: as §1, §2

FLT3(D835Y) = target: T19, FLT3(D835Y) (Homo sapiens, UniProt P36888, D835Y); settings: read-out: adjusted percentage (% control)
T19 construct: purchased DiscoverX ScanMAX Kinase analysis panel
Method: as §1, §2

DDR1 = target: T20, DDR1 (Homo sapiens, UniProt Q08345); settings: read-out: adjusted percentage (% control)
T20 construct: purchased DiscoverX
Method: as §1, §2

FRK = target: T21, FRK (Homo sapiens, UniProt P42685); settings: read-out: adjusted percentage (% control)
T21 construct: purchased DiscoverX ScanMAX Kinase analysis panel
Method: as §1, §2

RET = target: T22, RET (Homo sapiens, UniProt P07949); settings: read-out: adjusted percentage (% control)
T22 construct: purchased DiscoverX ScanMAX Kinase analysis panel
Method: as §1, §2

TRKC = target: T23, TRKC (Homo sapiens, UniProt Q16288); settings: read-out: adjusted percentage (% control)
T23 construct: purchased DiscoverX ScanMAX Kinase analysis panel
Method: as §1, §2

FGR = target: T24, FGR (Homo sapiens, UniProt P09769); settings: read-out: adjusted percentage (% control)
T24 construct: purchased DiscoverX ScanMAX Kinase analysis panel
Method: as §1, §2

RET(M918T) = target: T25, RET(M918T) (Homo sapiens, UniProt P07949, M918T); settings: read-out: adjusted percentage (% control)
T25 construct: purchased DiscoverX ScanMAX Kinase analysis panel
Method: as §1, §2

MAP3K2 = target: T26, MAP3K2 (Homo sapiens, UniProt Q9Y2U5); settings: read-out: adjusted percentage (% control)
T26 construct: purchased DiscoverX ScanMAX Kinase analysis panel
Method: as §1, §2

[4] = target: T27, JAK2(JH1domain-catalytic) (Homo sapiens, UniProt O60674); settings: read-out: adjusted percentage (% control)
T27 construct: JAK2(JH1domain-catalytic); purchased DiscoverX ScanMAX Kinase analysis panel
Method: as §1, §2

[5] = target: T28, ABL1(T315I)-nonphosphorylated (Homo sapiens, UniProt P00519, T315I); settings: read-out: adjusted percentage (% control)
T28 construct: purchased DiscoverX
Method: as §1, §2

[6] = target: T29, ABL1(T315I)-phosphorylated (Homo sapiens, UniProt P00519, T315I); settings: read-out: adjusted percentage (% control)
T29 construct: purchased DiscoverX
Method: as §1, §2

KIT(A829P) = target: T30, KIT(A829P) (Homo sapiens, UniProt P10721, A829P); settings: read-out: adjusted percentage (% control)
T30 construct: purchased DiscoverX ScanMAX Kinase analysis panel
Method: as §1, §2

[7] = target: T31, ABL1(Q252H)-phosphorylated (Homo sapiens, UniProt P00519, Q252H); settings: read-out: adjusted percentage (% control)
T31 construct: purchased DiscoverX
Method: as §1, §2

FLT3-autoinhibited = target: T32, FLT3-autoinhibited (Homo sapiens, UniProt P36888); settings: read-out: adjusted percentage (% control)
T32 construct: purchased DiscoverX ScanMAX Kinase analysis panel
Method: as §1, §2

EGFR(T790M) = target: T33, EGFR(T790M) (Homo sapiens, UniProt P00533, T790M); settings: read-out: adjusted percentage (% control)
T33 construct: purchased DiscoverX ScanMAX Kinase analysis panel
Method: as §1, §2

T16 sequence (Q12852 whole entry): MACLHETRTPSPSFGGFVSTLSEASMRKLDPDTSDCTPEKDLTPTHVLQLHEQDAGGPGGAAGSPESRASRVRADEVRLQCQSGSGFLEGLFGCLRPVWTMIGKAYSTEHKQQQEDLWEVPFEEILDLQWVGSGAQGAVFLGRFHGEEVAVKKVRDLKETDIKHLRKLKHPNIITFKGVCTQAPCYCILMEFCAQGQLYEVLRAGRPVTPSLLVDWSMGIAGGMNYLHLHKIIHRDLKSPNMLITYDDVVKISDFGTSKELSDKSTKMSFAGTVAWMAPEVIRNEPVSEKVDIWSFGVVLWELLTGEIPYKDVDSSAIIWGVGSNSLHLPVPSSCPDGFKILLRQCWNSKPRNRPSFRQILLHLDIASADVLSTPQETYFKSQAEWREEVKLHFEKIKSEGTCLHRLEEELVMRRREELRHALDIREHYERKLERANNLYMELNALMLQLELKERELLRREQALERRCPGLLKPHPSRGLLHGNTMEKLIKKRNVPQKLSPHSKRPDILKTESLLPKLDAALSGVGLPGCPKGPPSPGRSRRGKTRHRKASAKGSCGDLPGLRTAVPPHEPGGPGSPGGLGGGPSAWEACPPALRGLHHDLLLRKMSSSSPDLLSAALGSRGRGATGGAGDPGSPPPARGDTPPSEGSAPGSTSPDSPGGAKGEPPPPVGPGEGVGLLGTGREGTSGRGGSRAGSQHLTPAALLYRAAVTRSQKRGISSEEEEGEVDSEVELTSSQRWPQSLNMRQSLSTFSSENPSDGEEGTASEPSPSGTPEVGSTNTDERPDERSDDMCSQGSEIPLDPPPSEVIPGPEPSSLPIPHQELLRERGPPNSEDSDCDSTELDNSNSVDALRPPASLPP
T24 sequence (P09769 whole entry): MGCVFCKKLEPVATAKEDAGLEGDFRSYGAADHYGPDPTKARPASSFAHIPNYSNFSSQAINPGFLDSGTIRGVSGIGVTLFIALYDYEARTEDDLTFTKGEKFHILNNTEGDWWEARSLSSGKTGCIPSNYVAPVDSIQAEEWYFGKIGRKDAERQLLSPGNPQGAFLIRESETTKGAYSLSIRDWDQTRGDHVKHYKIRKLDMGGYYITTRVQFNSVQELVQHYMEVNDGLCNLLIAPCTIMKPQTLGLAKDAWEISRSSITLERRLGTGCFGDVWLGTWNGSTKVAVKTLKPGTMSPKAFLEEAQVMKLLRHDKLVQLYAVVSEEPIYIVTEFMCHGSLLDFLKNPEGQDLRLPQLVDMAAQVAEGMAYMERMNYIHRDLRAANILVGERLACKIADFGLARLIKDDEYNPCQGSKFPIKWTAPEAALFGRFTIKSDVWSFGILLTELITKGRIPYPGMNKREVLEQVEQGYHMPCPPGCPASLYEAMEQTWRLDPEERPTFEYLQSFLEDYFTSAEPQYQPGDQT
T23 sequence (Q16288 32-839): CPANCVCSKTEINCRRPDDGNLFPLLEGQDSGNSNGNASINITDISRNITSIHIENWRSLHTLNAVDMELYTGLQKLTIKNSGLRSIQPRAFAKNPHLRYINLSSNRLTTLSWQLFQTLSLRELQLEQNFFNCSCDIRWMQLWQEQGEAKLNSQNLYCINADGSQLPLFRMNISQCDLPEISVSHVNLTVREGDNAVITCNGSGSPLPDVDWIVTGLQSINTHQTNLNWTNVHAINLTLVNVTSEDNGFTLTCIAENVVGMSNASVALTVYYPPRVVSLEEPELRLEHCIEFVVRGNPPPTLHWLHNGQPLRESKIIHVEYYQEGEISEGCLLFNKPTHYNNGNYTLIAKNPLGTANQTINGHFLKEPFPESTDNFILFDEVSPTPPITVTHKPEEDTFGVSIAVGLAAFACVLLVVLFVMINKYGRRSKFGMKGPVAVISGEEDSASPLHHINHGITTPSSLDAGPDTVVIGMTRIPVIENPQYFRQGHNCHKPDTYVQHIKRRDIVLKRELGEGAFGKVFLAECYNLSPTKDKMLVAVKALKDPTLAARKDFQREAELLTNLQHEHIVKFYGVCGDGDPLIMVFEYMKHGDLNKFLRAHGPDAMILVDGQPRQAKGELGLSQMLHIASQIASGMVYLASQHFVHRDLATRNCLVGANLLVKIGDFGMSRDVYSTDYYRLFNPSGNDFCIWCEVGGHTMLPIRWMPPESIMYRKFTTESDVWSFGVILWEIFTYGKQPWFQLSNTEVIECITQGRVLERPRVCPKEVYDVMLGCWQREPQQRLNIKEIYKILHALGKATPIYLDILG
T20 sequence (Q08345 19-913): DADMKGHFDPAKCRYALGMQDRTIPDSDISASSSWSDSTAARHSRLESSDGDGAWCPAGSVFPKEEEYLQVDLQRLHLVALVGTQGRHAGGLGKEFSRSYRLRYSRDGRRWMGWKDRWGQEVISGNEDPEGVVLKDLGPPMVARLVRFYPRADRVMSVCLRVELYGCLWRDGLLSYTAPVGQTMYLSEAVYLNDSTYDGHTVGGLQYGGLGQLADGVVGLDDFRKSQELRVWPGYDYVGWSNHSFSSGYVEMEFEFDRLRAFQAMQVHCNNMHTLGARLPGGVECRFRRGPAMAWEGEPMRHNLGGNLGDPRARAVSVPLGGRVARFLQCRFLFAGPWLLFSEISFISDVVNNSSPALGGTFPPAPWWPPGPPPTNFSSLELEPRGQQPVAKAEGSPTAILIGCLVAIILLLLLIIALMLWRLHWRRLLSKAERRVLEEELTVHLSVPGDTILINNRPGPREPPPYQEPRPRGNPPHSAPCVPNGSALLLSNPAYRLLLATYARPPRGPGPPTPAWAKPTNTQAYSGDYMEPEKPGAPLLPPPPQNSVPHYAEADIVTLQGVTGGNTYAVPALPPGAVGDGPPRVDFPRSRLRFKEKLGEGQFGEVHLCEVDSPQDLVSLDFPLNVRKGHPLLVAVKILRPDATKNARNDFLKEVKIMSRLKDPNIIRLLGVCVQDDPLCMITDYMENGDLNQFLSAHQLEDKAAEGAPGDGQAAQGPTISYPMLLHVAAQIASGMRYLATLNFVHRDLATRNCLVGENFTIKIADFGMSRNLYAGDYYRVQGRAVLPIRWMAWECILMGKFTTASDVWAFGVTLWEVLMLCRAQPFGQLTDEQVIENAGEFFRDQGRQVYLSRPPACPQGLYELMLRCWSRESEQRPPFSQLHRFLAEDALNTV
T5 sequence (P19784 whole entry): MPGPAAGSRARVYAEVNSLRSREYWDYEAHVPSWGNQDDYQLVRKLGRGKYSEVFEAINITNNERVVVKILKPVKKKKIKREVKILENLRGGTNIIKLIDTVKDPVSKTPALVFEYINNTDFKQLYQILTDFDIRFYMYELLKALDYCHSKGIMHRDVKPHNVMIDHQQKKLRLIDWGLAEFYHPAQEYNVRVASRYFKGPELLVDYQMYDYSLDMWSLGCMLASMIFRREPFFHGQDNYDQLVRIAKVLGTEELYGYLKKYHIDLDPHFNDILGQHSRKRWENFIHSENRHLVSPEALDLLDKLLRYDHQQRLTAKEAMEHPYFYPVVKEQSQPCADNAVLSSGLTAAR
T33 sequence (P00533 25-1210 T790M): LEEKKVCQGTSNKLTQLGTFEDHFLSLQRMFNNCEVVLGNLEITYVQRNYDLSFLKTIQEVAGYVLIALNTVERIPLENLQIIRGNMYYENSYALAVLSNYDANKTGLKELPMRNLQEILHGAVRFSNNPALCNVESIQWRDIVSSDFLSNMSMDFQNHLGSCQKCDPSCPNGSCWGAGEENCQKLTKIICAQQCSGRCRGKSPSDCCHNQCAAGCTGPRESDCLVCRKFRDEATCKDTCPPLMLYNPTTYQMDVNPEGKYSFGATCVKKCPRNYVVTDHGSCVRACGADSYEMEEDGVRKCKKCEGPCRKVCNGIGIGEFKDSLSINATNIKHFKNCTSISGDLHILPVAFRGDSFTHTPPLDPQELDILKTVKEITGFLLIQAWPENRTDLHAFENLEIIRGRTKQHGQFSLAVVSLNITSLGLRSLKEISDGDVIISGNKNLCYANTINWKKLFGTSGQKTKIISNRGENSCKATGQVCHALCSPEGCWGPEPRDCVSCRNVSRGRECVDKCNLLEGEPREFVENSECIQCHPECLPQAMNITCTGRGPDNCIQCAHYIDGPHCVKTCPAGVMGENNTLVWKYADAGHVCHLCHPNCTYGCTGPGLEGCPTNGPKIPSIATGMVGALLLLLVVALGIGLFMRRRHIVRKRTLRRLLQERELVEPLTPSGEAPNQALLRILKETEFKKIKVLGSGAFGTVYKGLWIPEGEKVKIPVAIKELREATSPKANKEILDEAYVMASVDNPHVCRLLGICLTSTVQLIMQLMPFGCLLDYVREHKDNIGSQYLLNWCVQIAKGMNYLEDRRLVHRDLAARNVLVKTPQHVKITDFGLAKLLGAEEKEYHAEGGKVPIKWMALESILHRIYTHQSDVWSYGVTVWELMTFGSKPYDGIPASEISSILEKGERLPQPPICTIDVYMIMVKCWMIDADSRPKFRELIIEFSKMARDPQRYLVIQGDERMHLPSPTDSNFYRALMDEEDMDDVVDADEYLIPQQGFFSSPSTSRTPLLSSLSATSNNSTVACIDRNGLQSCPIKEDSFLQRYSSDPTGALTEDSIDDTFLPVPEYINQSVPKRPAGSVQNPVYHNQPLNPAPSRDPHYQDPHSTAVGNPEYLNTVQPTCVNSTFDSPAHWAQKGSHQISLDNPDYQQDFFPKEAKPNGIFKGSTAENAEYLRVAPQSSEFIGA
T14 sequence (Q9P2K8 590-1001 S808G limits assumed): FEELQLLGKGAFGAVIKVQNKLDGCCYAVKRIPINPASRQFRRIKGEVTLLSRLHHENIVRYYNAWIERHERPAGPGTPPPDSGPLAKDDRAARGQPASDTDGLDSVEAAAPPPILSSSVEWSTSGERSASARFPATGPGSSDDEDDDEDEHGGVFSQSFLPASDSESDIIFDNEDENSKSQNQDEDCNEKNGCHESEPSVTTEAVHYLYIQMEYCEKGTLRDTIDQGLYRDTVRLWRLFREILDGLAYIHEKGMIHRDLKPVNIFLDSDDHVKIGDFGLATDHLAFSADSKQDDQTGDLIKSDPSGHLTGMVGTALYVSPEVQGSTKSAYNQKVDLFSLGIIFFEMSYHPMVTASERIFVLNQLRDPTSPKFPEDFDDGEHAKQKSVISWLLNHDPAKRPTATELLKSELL

Structure (SMILES) | remaining binding at 1 µM (FLT3(D835V)) | remaining binding at 1 µM (AURKA) | remaining binding at 1 µM (DDR2) | remaining binding at 1 µM (AXL) | adjusted percentage (% control) (FLT3(ITD, D835V)) | remaining binding at 1 µM (CSNK2A2) | remaining binding at 1 µM [1] | remaining binding at 1 µM (FGFR1) | adjusted percentage (% control) (FLT3(ITD)) | remaining binding at 1 µM [2] | remaining binding at 1 µM (SYK) | remaining binding at 1 µM (MEK2) | remaining binding at 1 µM (AURKC) | remaining binding at 1 µM (FLT3(K663Q)) | remaining binding at 1 µM [3] | remaining binding at 1 µM (GCN2(Kin.Dom.2, S808G)) | remaining binding at 1 µM (KIT(D816V)) | remaining binding at 1 µM (DLK) | remaining binding at 1 µM (LCK) | remaining binding at 1 µM (PDGFRB) | also measured
COc1ccc(CN2C3CC2CN(c2ccc(-c4nc(Nc5cc(C)[nH]n5)c5occc5n4)cn2)C3)cn1 [Example 1, 2-(6-(6-((6-methoxypyridin-3-yl)methyl)-3,6-diazabicyclo[3.1.1]heptan-3-yl)pyridin-3-yl)-N-(5-methyl-1H-pyrazol-3-yl)furo[3,2-d]pyrimidin-4-amine] | 1.3% | 4.1% | 16% | 1.2% | 0% | 0% | 15% | 11% | 4.9% | 10% | 3.1% | 24% | 15% | 2.2% | 16% | 8% | 32% | 29% | 2.5% | 15% | remaining binding at 1 µM (FLT3(D835Y)): 1.5%; remaining binding at 1 µM (DDR1): 25%; remaining binding at 1 µM (FRK): 18%; remaining binding at 1 µM (RET): 0%; remaining binding at 1 µM (TRKC): 0.45%; remaining binding at 1 µM (FGR): 12%; remaining binding at 1 µM (RET(M918T)): 0.9%; remaining binding at 1 µM (MAP3K2): 27%; remaining binding at 1 µM [4]: 0.1%; remaining binding at 1 µM [5]: 20%; remaining binding at 1 µM [6]: 19%; remaining binding at 1 µM (KIT(A829P)): 2.8%; remaining binding at 1 µM [7]: 15%; remaining binding at 1 µM (FLT3-autoinhibited): 9.8%; remaining binding at 1 µM (EGFR(T790M)): 8.1%
COc1ccc(CN2C3CC2CN(c2ccc(-c4nc(Nc5cc(C)[nH]n5)c5ccccc5n4)cn2)C3)cn1 [Example 3, 2-(6-(6-((6-methoxypyridin-3-yl)methyl)-3,6-diazabicyclo [3.1.1]heptan-3-yl)pyridin-3-yl)-N-(5-methyl-1H-pyrazol-3-yl)quinazolin-4-amine] | 0% | 2.2% | 30% | 0% | 0% | 0.3% | 9.7% | 4.3% | 1.2% | 2.5% | 2.2% | 17% | 21% | 0.1% | 17% | 0.2% | 6.5% | 19% | 1.8% | 2.7% | remaining binding at 1 µM (FLT3(D835Y)): 0.55%; remaining binding at 1 µM (DDR1): 12%; remaining binding at 1 µM (FRK): 34%; remaining binding at 1 µM (RET): 0%; remaining binding at 1 µM (TRKC): 1%; remaining binding at 1 µM (FGR): 8.4%; remaining binding at 1 µM (RET(M918T)): 0.25%; remaining binding at 1 µM (MAP3K2): 7.4%; remaining binding at 1 µM [4]: 0%; remaining binding at 1 µM [5]: 2.9%; remaining binding at 1 µM [6]: 3.2%; remaining binding at 1 µM (KIT(A829P)): 11%; remaining binding at 1 µM [7]: 17%; remaining binding at 1 µM (FLT3-autoinhibited): 11%; remaining binding at 1 µM (EGFR(T790M)): 16%
